Data on one compound can be found in publication PMC5289892 (ACS chemical biology, 2016).

For one series, the system named is 1483 HNSCC xenografts. Briefly: In vivo tumor growth, 1483 HNSCC xenografts. The note with it: 1483 xenograft-bearing nude mice, daily intraperitoneal, 14 days.
A further series has as its target T1, ovine COX-1 (Ovis aries, UniProt P05979).
T1 sequence (P05979 25-600): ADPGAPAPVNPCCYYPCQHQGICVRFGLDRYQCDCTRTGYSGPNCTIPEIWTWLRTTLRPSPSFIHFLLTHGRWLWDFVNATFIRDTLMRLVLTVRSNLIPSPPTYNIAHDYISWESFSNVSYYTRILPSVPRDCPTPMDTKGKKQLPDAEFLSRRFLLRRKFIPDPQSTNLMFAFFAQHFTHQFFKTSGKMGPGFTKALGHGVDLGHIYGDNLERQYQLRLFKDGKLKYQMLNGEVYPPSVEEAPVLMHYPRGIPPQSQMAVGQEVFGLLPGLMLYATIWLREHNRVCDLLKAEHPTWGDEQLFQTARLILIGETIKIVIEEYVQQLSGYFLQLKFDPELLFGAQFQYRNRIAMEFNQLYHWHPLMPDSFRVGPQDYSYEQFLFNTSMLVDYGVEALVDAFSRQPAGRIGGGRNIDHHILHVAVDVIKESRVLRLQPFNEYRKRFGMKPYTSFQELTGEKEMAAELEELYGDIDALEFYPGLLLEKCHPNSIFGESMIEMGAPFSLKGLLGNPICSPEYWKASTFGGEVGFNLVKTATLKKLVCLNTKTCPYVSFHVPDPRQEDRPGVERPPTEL
Briefly: Purified COX-1 enzyme inhibition assay. The class given is biochemical.

In another series the target is T2, mouse COX-2 (Mus musculus, UniProt Q05769).
T2 sequence (Q05769 18-604): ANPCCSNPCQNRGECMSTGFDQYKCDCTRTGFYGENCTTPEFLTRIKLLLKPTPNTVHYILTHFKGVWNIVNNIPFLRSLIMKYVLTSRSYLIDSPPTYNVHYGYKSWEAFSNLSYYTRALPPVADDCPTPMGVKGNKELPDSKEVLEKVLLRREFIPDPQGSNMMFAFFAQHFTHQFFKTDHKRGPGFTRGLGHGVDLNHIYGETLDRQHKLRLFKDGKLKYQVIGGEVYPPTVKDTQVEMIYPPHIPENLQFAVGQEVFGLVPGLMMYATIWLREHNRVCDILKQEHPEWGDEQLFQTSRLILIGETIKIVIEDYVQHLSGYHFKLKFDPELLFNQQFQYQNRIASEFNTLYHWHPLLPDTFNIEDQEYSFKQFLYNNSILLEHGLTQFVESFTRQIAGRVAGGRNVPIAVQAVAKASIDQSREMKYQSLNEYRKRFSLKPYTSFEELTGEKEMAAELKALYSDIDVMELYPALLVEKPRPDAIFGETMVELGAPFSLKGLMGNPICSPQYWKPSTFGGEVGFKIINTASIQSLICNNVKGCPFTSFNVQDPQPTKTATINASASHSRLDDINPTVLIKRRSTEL
Put plainly: Purified COX-2 enzyme inhibition assay. Format: biochemical.

The nature of series [1]: Animal weight in xenograft-bearing mice. The note with it: 1483 xenograft-bearing mice, 14 days treatment.
Series [2] deals with primary human mammary epithelial cells (HMEC). Briefly: Cell viability assay. The class given is cell-based. The note with it: 48 h, read-out: EC50 cytostatic effect.
Series [3] relates to 1483 HNSCC cells. Put plainly: Cell viability assay. Format: cell-based, human. The note with it: 48 h.
The test system of series [4] is 1483 HNSCC cells. Put plainly: Reversibility of inhibition of 1483 cell growth. Format: cell-based, human. The note with it: 1483 cells.

In general, EC50 refers to the midpoint of the concentration-response curve. As for `COc1cc([C@@H]2c3cc4c(cc3[C@H](O)[C@H]3COC(=O)[C@H]23)OCO4)cc(OC)c1OC` [Podophyllotoxin], the “effect on tumor growth” value in the series with 1483 HNSCC xenografts is “no effect on tumor size”. The “COX-1 inhibition, in words” value at ovine COX-1 was “inactive”. Further, the “COX-2 inhibition, in words” value on mouse COX-2 was “inactive”. Moreover, in series [1], the “effect on animal weight” value is on record as “decrease in animal weight”. Besides, the EC50 in series [2] was 360 nM; in the series on 1483 HNSCC cells [3] (Homo sapiens, read-out: EC50 reduction in cell number) it was 62 nM. Moreover, in the series on 1483 HNSCC cells [3] (1483 cells), the “lowest cell number reached, % of vehicle-treated cultures” value was ~ 35%. Moreover, the “effect of washout on reduction in cell number” value with 1483 HNSCC cells [4] (10 μM for 5 h, washout, further 72 h) is on record as “significant recovery of cell number”. Further, in the series with 1483 HNSCC cells [4] (10 μM, 72 h), the “reduction of total cell number” value is ~ 80%.
